Inhibition data for 15 molecules are collected here from patent US8173689B2 (Novartis AG, priority 2006, dated 2012).

By inhibition is commonly meant the relative decrease from the control value, in per cent.

The target in assay [1] is T1, kinase domain of PDGFRβ (Homo sapiens, UniProt P09619).
T1 construct: The kinase domain of PDGFRβ was assayed in 50 mM Hepes; purchased Invitrogen P3082
Briefly: Inhibition of PDGFRb kinase signaling in an in vitro biochemical assay (alphascreen). Conditions: tested at about 1 μM, read-out: PDGFRβ percent inhibition.

In assay [2] the target is T2, cytoplasmic domain of the human CSF-1R (Homo sapiens, UniProt P07333).
T2 construct: Recombinant protein corresponding to the cytoplasmic domain of the human CSF-1R; purchased Invitrogen Corporation, Carlsbad, Calif; PV3249
T2 sequence (P07333 539-972 limits assumed): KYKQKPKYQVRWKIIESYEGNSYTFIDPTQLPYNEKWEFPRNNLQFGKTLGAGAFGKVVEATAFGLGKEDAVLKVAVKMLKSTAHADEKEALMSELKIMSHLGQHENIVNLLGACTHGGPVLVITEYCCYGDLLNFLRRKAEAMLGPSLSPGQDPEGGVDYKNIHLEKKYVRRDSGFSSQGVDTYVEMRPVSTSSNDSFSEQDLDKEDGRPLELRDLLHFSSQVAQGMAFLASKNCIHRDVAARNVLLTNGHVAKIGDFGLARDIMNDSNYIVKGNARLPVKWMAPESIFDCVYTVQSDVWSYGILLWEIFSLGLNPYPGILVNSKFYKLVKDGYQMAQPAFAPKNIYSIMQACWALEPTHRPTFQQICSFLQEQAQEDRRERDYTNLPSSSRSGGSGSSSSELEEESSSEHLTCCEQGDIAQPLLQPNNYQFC
Briefly: In vitro kinase assay for colony stimulating factor-1 receptor (AlphaScreen). Conditions: read-out: CSF-1R percent inhibition. Format: biochemical. In a few lines:
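Tyrosine phosphorylation of a peptide substrate by 4 nM recombinant cytoplasmic-domain enzyme is measured at 1 μM ATP in Mn2+/Mg2+-containing Hepes buffer, pH 7.5. Detection uses PT66 AlphaScreen beads after overnight incubation.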
For orientation: Bead proximity is the source of the signal in Alpha formats.

Assay [3] addresses T3, full-length human CSF-1R receptor (Homo sapiens, UniProt P07333).
T3 construct: transfected with the full-length human CSF-1R receptor cloned in house; expressed in transfected cells; host or cells: HEK293H (Invitrogen Cat. #11631017)
Kind of assay: In vitro inhibition of CSF-1R receptor tyrosine phosphorylation in transfected HEK293H cells stimulated with MCSF. The class given is cell-based. Conditions: HEK293-H, read-out: pCSF1R percent inhibition. How it is done: The lysate was then transferred to total CSF-1R antibody coated 96-well plates that had already been blocked with 3% Blocker A from Mesoscale discovery (MSD) for 2 hours and washed afterwards. Lysates were incubated overnight at 4° C. and the plates were then washed 4× with MSD Tris Wash Buffer. […] The plates were read on the Sector 6000 instrument (MSD). Raw data was imported in Abase and EC50s calculated with XL-fit data analysis software.

In assay [4] the target is T4, kinase domain of cKIT (Homo sapiens, UniProt P10721).
T4 construct: The kinase domain of cKIT was assayed in 50 mM Hepes; purchased Upstate 14-559
Briefly: Inhibition of cKIT kinase signaling in an in vitro biochemical assay (alphascreen). Conditions: tested at about 1 μM, read-out: cKit percent inhibition.

Assay [5] deals with MNFS60 (murine AML cells). Briefly: Cell viability assay in MCSF dependent MNFS60 cells (Cell Titer Glo). Format: cell-based. Conditions: Mus musculus, read-out: M-NFS-60 CP percent inhibition. In outline: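 EC50 values reflect MCSF-driven (10 ng/ml final) proliferation over 72 hrs at 37° C., read by CellTiter-Glo. Each condition was run in triplicate.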
In general terms: Cellular ATP, detected with luciferase, serves as a proxy for viable cell number.

[6] abbreviates: tested at about 1 μM, compounds of Table 3.
The mark [7] stands for this setting: tested at about 1 μM, compounds of Table 4.
Setting [8] is: tested at about 1 μM, HEK293H cells.
Setting [9] is: tested at about 1 μM, MNFS60 cells.

Where two headings read alike, the source gives them in different places.

T3 sequence (P07333 20-972): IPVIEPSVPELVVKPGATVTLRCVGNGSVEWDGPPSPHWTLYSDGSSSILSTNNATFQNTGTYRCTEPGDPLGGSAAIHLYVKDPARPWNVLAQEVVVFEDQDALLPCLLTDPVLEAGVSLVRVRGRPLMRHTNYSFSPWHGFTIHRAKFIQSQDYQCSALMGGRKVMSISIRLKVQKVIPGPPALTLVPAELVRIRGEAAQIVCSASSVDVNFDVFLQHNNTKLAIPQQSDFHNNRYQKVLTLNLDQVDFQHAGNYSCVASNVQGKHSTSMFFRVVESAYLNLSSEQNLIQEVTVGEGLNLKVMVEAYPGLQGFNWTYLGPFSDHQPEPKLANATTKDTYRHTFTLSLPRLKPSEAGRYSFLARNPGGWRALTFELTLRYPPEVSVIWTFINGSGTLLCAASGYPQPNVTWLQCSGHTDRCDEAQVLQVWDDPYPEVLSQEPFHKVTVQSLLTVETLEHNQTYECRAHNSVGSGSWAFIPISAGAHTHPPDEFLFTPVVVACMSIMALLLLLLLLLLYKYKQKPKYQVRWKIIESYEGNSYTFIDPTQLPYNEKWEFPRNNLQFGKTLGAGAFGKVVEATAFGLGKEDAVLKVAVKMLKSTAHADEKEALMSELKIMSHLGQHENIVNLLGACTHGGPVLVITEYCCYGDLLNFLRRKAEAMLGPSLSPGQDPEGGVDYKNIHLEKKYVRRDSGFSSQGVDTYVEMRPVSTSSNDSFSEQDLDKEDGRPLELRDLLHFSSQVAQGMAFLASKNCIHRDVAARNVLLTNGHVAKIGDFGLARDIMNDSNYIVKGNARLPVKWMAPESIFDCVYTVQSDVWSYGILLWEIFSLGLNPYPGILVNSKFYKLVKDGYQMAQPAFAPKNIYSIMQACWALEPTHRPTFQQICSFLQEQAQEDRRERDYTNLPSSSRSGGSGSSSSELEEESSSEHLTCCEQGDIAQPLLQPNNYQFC
T1 sequence (P09619 600-962 limits assumed): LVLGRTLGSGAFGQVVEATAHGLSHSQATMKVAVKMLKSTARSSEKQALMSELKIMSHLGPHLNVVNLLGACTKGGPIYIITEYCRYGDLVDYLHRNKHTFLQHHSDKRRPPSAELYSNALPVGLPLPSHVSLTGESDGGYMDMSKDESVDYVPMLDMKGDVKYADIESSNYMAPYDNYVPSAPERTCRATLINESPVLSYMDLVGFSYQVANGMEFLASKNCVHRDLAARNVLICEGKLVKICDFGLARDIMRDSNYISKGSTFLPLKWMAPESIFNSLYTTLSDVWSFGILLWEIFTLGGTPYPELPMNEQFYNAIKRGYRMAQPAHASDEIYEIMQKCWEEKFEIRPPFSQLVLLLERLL
T4 sequence (P10721 589-937 limits assumed): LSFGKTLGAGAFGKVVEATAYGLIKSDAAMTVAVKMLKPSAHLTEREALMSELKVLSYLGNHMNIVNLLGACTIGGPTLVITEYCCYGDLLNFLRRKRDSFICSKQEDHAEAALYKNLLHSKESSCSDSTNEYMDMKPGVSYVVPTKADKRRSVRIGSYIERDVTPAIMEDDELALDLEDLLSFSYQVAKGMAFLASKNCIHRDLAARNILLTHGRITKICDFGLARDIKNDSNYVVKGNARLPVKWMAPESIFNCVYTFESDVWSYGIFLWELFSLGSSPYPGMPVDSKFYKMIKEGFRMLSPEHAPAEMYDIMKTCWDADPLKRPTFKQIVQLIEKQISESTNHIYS

For the molecule `CNC(=O)c1cc(Oc2ccc3nc(Nc4ccccc4-n4ccnc4C)oc3c2)ccn1` [Compound 47, 4-{2-[2-(2-Methyl-imidazol-1-yl)-phenylamino]-benzooxazol-6-yloxy}-pyridine-2-carboxylic acid methylamide], the inhibition at 1 µM in assay [1] (compounds of Table 3) stood at 4%; in assay [1] (compounds of Table 4), 31%; in assay [1], 12%; in assay [2] (setting [6]), 100%; in assay [2] (setting [7]), 100%; in assay [2] (tested at about 1 μM) it was 13%. Besides, the inhibition at 1 µM was determined as 83% in assay [3] (setting [6]); 79% in assay [3] (setting [7]); 0% in assay [4] (compounds of Table 3); 55% in assay [4] (compounds of Table 4); 55% in assay [5] (setting [6]); 58% in assay [5] (setting [7]).
For the molecule `CNC(=O)c1cc(Oc2ccc3nc(N[C@H]4c5ccccc5C[C@H]4O)sc3c2)ccn1` [Example 321, 4-(2-((1S,2R)-2-hydroxy-2,3-dihydro-1H-inden-1-ylamino)benzo[d]thiazol-6-yloxy)-N-methylpicolinamide], the inhibition at 1 µM in assay [1] worked out at 41%; in assay [2] (tested at about 1 μM), 100%; in assay [3] (setting [8]) it was 97%; in assay [4] it was 52%; in assay [5] (tested at about 1 μM, MCSF dependent MNFS60 cells) it was 82%.
Consider `CC(C)[C@@H](CO)Nc1nc2ccc(Oc3ccnc4ccccc34)cc2s1` [Example 244, (S)-3-methyl-2-(6-(quinolin-4-yloxy)benzo[d]thiazol-2-ylamino)butan-1-ol], for which the inhibition at 1 µM in assay [1] (compounds of Table 3) came to 35%; in assay [2] (setting [6]), 100%; in assay [3] (setting [6]), 85%; in assay [4] (compounds of Table 3), 25%; in assay [5] (setting [6]), 67%.
Turning to `N#Cc1ccc2c(Oc3ccc4nc(N[C@@H]5CCCC[C@H]5O)sc4c3)ccnc2c1` [Example 222, 4-(2-((1R,2R)-2-hydroxycyclohexylamino)benzo[d]thiazol-6-yloxy)quinoline-7-carbonitrile], the inhibition at 1 µM in assay [1] (compounds of Table 3) stood at 69%; in assay [2] (setting [6]) it was 100%; in assay [3] (setting [6]), 68%; in assay [4] (compounds of Table 3) it was 52%; in assay [5] (setting [6]), 91%.
`CNC(=O)c1cc(Oc2ccc3nc(NC4CCCc5ccccc54)oc3c2)ccn1` (stereo not shown) [Compound 104, 4-[2-(1,2,3,4-Tetrahydro-naphthalen-1-ylamino)-benzooxazol-6-yloxy]-pyridine-2-carboxylic acid methylamide]: the inhibition at 1 µM turned out to be 10% in assay [1]; 99% in assay [2] (tested at about 1 μM); 63% in assay [3] (setting [8]); 18% in assay [4]; 47% in assay [5] (setting [9]).
Turning to `O[C@@H]1CCCC[C@H]1Nc1nc2ccc(Oc3ccnc(-c4ccc(F)nc4)c3)cc2s1` [Cmpd 173, (1R,2R)-2-(6-(6'-fluoro-2,3'-bipyridin-4-yloxy)benzo[d]thiazol-2-ylamino)cyclohexanol], the inhibition at 1 µM in assay [1] (compounds of Table 3) was found to be 8%; in assay [2] (setting [6]), 100%; in assay [3] (setting [6]), 81%; in assay [4] (compounds of Table 3), 18%; in assay [5] (setting [6]), 52%.
Take `Cn1cc(-c2cc(Oc3ccc4nc(N[C@@H]5CCCC[C@H]5O)sc4c3)ccn2)cn1` [Example 344, (1R,2R)-2-(6-(2-(1-methyl-1H-pyrazol-4-yl)pyridin-4-yloxy)benzo[d]thiazol-2-ylamino)cyclohexanol]: the inhibition at 1 µM in assay [1] amounted to 65%; in assay [2], 100%; in assay [3] it was 95%; in assay [4] it was 45%; in assay [5], 100%.
For `N#Cc1ccc2nccc(Oc3ccc4nc(N[C@@H]5CCCC[C@H]5O)sc4c3)c2c1` [Example 220, 4-(2-((1R,2R)-2-hydroxycyclohexylamino)benzo[d]thiazol-6-yloxy)quinolin-6-carbonitrile], the inhibition at 1 µM in assay [1] (compounds of Table 3) was 65%; in assay [2] (setting [6]) it was 100%; in assay [3] (setting [6]), 91%; in assay [4] (compounds of Table 3), 48%; in assay [5] (setting [6]) it was 84%.
Consider `O[C@@H]1CCCC[C@H]1Nc1nc2ccc(Oc3ccnc4cc(F)ccc34)cc2s1` [Example 229, (1R,2R)-2-(6-(7-fluoroquinolin-4-yloxy)benzo[d]thiazol-2-ylamino)cyclohexanol], for which the inhibition at 1 µM in assay [1] (compounds of Table 3) stood at 30%; in assay [2] (setting [6]) it was 100%; in assay [3] (setting [6]), 92%; in assay [4] (compounds of Table 3), 21%; in assay [5] (setting [6]), 80%.
In the case of `O[C@@H]1CCCC[C@H]1Nc1nc2ccc(Oc3ccnc(-c4cccc(CN5CCOCC5)c4)c3)cc2s1` [Cmpd 166, (1R,2R)-2-(6-(2-(3-(morpholinomethyl)phenyl)pyridin-4-yloxy)benzo[d]thiazol-2-ylamino)cyclohexanol], the inhibition at 1 µM in assay [1] (compounds of Table 3) came to 0%; in assay [2] (setting [6]), 100%; in assay [3] (setting [6]) it was 78%; in assay [4] (compounds of Table 3), 13%; in assay [5] (setting [6]), 49%.
As for `CNC(=O)c1cc(Oc2ccc3nc(NCc4ccc(Cl)cc4Cl)sc3c2)ccn1` [Compound 130, 4-[2-(2,4-Dichloro-benzylamino)-benzothiazol-6-yloxy]-pyridine-2-carboxylic acid methylamide], the inhibition at 1 µM in assay [1] came to 25%; in assay [2] (tested at about 1 μM) it was 99%; in assay [3] (setting [8]), 85%; in assay [4] it was 87%; in assay [5] (setting [9]), 72%.
For the molecule `CNC(=O)c1cc(Oc2ccc3nc(NCc4cc(F)ccc4F)sc3c2)ccn1` [Compound 139, 4-[2-(2,5-Difluoro-benzylamino)-benzothiazol-6-yloxy]-pyridine-2-carboxylic acid methylamide], the inhibition at 1 µM in assay [1] is 0%; in assay [2] (tested at about 1 μM), 100%; in assay [3] (setting [8]), 94%; in assay [4], 21%; in assay [5] (setting [9]), 48%.
The like results for `CNC(=O)c1cc(Oc2ccc3nc(N[C@H]4CCCC[C@@H]4O)oc3c2)ccn1` [Compound 52, 4-[2-((1S,2S)-2-Hydroxy-cyclohexylamino)-benzooxazol-6-yloxy]-pyridine-2-carboxylic acid methylamide] were, in that order, 50%, 100%, 71%, 12% and 56%.
With `O[C@@H]1CCCC[C@H]1Nc1nc2ccc(Oc3ccnc(-c4cscn4)c3)cc2s1` [Compound 159], the inhibition at 1 µM in assay [1] (compounds of Table 3) was found to be 23%; in assay [2] (setting [6]), 100%; in assay [3] (setting [6]) it was 96%; in assay [4] (compounds of Table 3) it was 29%; in assay [5] (setting [6]), 98%.
With `O[C@@H]1CCCC[C@H]1Nc1nc2ccc(Oc3ccnc(-c4ccc(N5CCOCC5)nc4)c3)cc2s1` [Cmpd 165, (1R,2R)-2-(6-(6'-morpholino-2,3'-bipyridin-4-yloxy)benzo[d]thiazol-2-ylamino)cyclohexanol], the inhibition at 1 µM was found to be 83% in assay [1] (compounds of Table 3); 100% in assay [2] (setting [6]); 98% in assay [3] (setting [6]); 83% in assay [4] (compounds of Table 3); 100% in assay [5] (setting [6]).
